Assay results taken from patent US4100346A, “Certain 7(o-amino-methyl- or methylaminomethylphenyl- or cyclohexadienyl- or thienylacetamide)-3[1-carboxymethyl-(or ethyl- or propyl-)-tetrazol-5-ylthiomethyl]-3-cephem-4-carboxylic acids” (Bristol-Myers Company, priority 1976, dated 1978).
In brackets after ≈: the same amount, converted by molar mass. Where two headings read alike, the source gives them in different places.

Legend:
Pasteurella multocida = assay: Growth inhibitory activity, antibiotic dilution technique; conditions: read-out: Minimum inhibitory concentration
Enterobacter cloacae = assay: Effect of inoculum size on susceptibility of Enterobacteriaceae
Enterobacter aerogenes = assay: as above; conditions: Klebsiella aerogenes, read-out: Minimum Inhibitory Concentration, Enterobacter aerogenes strain 1
[1] = target: β-lactamase Class I Type b, Escherichia coli 719 (Escherichia coli, UniProt P00811); assay type: biochemical
Experimental: (§1) Miscellaneous. Methods for determining bactericidal activity and susceptibility to cell-free β-lactamase were those previously used; Leitner et al., BL-S640, A Cephalosporin With a Broad Spectrum of Antibacterial Activity: Properties in vitro, Antimicrob. Agents Chemother.
(§2) Susceptibility to β-lactamase. Susceptibility to enzymic hydrolysis was assessed by determining relative rates of hydrolysis by cell-free preparations of various β-lactamases (Table 6).

[2] = system: β-lactamase Class II Type a, Proteus mirabilis 1266; assay type: biochemical
Experimental: as §1, §2

[3] = system: β-lactamase Class IV Type a, Klebsiella pneumoniae 53; assay type: biochemical
Experimental: as §1, §2

[4] = target: T1, β-lactamase Class III Type a, Escherichia coli TEM (Escherichia coli, UniProt P62593); assay type: biochemical
T1 construct: cell-free preparations of various β-lactamases; endogenous in cells; host or cells: Escherichia coli strain TEM
Experimental: as §1, §2

[5] = target: β-lactamase Class I Type a, Enterobacter cloacae 214 (Enterobacter cloacae, UniProt P05364); assay type: biochemical
Experimental: as §1, §2

[6] = system: β-lactamase Class IV Type b, Klebsiella pneumoniae 1169; assay type: biochemical
Experimental: as §1, §2

Proteus mirabilis = assay: Effect of inoculum size on susceptibility of Enterobacteriaceae
Staphylococcus Aureus = assay: Effect of inoculum size on susceptibility of Staphylococcus aureus; assay type: cell-based; conditions: for MICB /MICA: MIC at 10^6 over MIC at 10^2 organisms
Bacteroides Fragilis = assay: Growth inhibitory activity, antibiotic dilution technique (obligate anaerobes); assay type: cell-based; conditions: 3 strains, geometric mean when applicable, read-out: Minimum inhibitory concentration
Experimental: Antibiotic spectrum. […] Procedures were as follows:
c. Obligate anaerobes. The assay was performed on solid medium, consisting of Brain Heart Infusion Broth (BBL) supplemented with 5% defibrinated sheep blood and 1% Ionagar (Colab). […] The plates were incubated at 37° C. for 48 hours under the oxygen-free conditions attained with a Gas-Pak (BBL) Brewer jar system.

Listeria monocytogenes = assay: Growth inhibitory activity, antibiotic dilution technique; conditions: read-out: Minimum inhibitory concentration
Escherichia coli = assay: Effect of inoculum size on susceptibility of Enterobacteriaceae
Neisseria gonorrhoeae = assay: Growth inhibitory activity, antibiotic dilution technique
Edwardsiella tarda = assay: as above; conditions: read-out: Minimum inhibitory concentration
Erwinia sp. = assay: as above; conditions: read-out: Minimum inhibitory concentration
Klebsiella pneumoniae = assay: Effect of inoculum size on susceptibility of Enterobacteriaceae
Citrobacter sp. = assay: Growth inhibitory activity, antibiotic dilution technique
Proteus rettgeri = assay: Effect of inoculum size on susceptibility of Enterobacteriaceae; conditions: Providencia rettgeri

Sequence of β-lactamase Class I Type a, Enterobacter cloacae 214 (P05364 21-381): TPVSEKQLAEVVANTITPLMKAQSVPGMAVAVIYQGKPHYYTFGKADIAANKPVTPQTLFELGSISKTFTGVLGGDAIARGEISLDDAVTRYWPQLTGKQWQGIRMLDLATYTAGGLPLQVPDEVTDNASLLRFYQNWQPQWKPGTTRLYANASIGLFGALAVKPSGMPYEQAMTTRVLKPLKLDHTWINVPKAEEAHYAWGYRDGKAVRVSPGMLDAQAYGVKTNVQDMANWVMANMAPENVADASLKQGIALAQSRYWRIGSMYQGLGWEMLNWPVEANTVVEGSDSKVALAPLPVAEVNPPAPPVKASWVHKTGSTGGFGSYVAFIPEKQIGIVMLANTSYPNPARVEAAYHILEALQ
T1 sequence (P62593 24-286 limits assumed): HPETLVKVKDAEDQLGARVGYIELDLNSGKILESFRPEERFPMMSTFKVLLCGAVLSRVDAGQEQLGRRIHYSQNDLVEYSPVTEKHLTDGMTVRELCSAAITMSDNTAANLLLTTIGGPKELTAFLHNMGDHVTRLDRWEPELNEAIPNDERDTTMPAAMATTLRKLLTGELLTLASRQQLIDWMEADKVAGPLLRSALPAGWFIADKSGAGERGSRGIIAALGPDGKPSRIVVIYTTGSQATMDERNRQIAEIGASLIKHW
Sequence of β-lactamase Class I Type b, Escherichia coli 719 (P00811 20-377): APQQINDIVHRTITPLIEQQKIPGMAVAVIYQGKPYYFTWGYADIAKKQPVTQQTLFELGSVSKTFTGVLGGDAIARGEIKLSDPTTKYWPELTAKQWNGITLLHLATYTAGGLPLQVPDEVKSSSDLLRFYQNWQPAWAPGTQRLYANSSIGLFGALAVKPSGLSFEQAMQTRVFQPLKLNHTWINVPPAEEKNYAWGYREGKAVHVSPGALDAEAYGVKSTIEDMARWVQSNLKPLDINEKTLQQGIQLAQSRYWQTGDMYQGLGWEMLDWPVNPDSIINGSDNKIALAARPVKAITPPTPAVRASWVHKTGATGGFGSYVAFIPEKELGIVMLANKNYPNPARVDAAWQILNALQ

CC(=O)OCC1=C(C(=O)O)N2C(=O)[C@@H](NC(=O)Cc3cccs3)[C@H]2SC1 [Cephalothin] was tested, and the MIC (Pasteurella multocida) was 0.09 µg/mL (≈ 0.227 µM), the MIC (Enterobacter cloacae; read-out: Minimum Inhibitory Concentration, Enterobacter cloacae strain 1, A, Inoculum of 10^2 organisms) was 8 µg/mL (≈ 20.2 µM) and the MIC (Enterobacter cloacae; read-out: Minimum Inhibitory Concentration, Enterobacter cloacae strain 1, B, Inoculum of 10^6 organisms) was greater than 250 µg/mL. For the same molecule, the MIC (Enterobacter cloacae; read-out: Minimum Inhibitory Concentration, Enterobacter cloacae strain 2, A, Inoculum of 10^2 organisms) was 16 µg/mL (≈ 40.4 µM), the MIC (Enterobacter cloacae; read-out: Minimum Inhibitory Concentration, Enterobacter cloacae strain 2, B, Inoculum of 10^6 organisms) was greater than 250 µg/mL and the MIC (Enterobacter cloacae; read-out: Minimum Inhibitory Concentration, Enterobacter cloacae strain 3, A, Inoculum of 10^2 organisms) was 16 µg/mL (≈ 40.4 µM). It also gave an MIC (Enterobacter cloacae; read-out: Minimum Inhibitory Concentration, Enterobacter cloacae strain 3, B, Inoculum of 10^6 organisms) of 250 µg/mL (≈ 631 µM), an MIC (Enterobacter cloacae; read-out: Minimum Inhibitory Concentration, Enterobacter cloacae strain 4, A, Inoculum of 10^2 organisms) of 32 µg/mL (≈ 80.7 µM) and an MIC (Enterobacter cloacae; read-out: Minimum Inhibitory Concentration, Enterobacter cloacae strain 4, B, Inoculum of 10^6 organisms) greater than 250 µg/mL. The MIC (Enterobacter cloacae; read-out: Minimum Inhibitory Concentration, Enterobacter cloacae strain 5, A, Inoculum of 10^2 organisms) was 16 µg/mL (≈ 40.4 µM), the MIC (Enterobacter cloacae; read-out: Minimum Inhibitory Concentration, Enterobacter cloacae strain 5, B, Inoculum of 10^6 organisms) was 250 µg/mL (≈ 631 µM) and the MIC (Enterobacter aerogenes; A, Inoculum of 10^2 organisms) was 32 µg/mL (≈ 80.7 µM). The MIC (Enterobacter aerogenes; B, Inoculum of 10^6 organisms) was greater than 250 µg/mL, the “Relative Rate of Hydrolysis (benzylpenicillin = 100)” value (shortened to “Relative Rate of Hydrolysis”) [1] was 480 and the “Relative Rate of Hydrolysis” value [2] was less than 1. For the same molecule, the “Relative Rate of Hydrolysis” value [3] was 8, the “Relative Rate of Hydrolysis” value [4] was 9 and the “Relative Rate of Hydrolysis” value [5] was 2100. For the same molecule, the “Relative Rate of Hydrolysis” value [6] was 43, the MIC (Proteus mirabilis; read-out: Minimum Inhibitory Concentration, Proteus mirabilis strain 1, A, Inoculum of 10^2 organisms) was 8 µg/mL (≈ 20.2 µM) and the MIC (Proteus mirabilis; read-out: Minimum Inhibitory Concentration, Proteus mirabilis strain 1, B, Inoculum of 10^6 organisms) was 16 µg/mL (≈ 40.4 µM). For the same molecule, the MIC (Proteus mirabilis; read-out: Minimum Inhibitory Concentration, Proteus mirabilis strain 2, A, Inoculum of 10^2 organisms) was 4 µg/mL (≈ 10.1 µM), the MIC (Proteus mirabilis; read-out: Minimum Inhibitory Concentration, Proteus mirabilis strain 2, B, Inoculum of 10^6 organisms) was 32 µg/mL (≈ 80.7 µM) and the MIC (Proteus mirabilis; read-out: Minimum Inhibitory Concentration, Proteus mirabilis strain 3, A, Inoculum of 10^2 organisms) was 16 µg/mL (≈ 40.4 µM). For the same molecule, the MIC (Proteus mirabilis; read-out: Minimum Inhibitory Concentration, Proteus mirabilis strain 3, B, Inoculum of 10^6 organisms) was 32 µg/mL (≈ 80.7 µM), the MIC (Proteus mirabilis; read-out: Minimum Inhibitory Concentration, Proteus mirabilis strain 4, A, Inoculum of 10^2 organisms) was 8 µg/mL (≈ 20.2 µM) and the MIC (Proteus mirabilis; read-out: Minimum Inhibitory Concentration, Proteus mirabilis strain 4, B, Inoculum of 10^6 organisms) was 32 µg/mL (≈ 80.7 µM). For the same molecule, the MIC (Proteus mirabilis; read-out: Minimum Inhibitory Concentration, Proteus mirabilis strain 5, A, Inoculum of 10^2 organisms) was 8 µg/mL (≈ 20.2 µM), the MIC (Proteus mirabilis; read-out: Minimum Inhibitory Concentration, Proteus mirabilis strain 5, B, Inoculum of 10^6 organisms) was 32 µg/mL (≈ 80.7 µM) and the “effect of cell concentration on growth inhibitory activity” value (Staphylococcus Aureus) was “slightly”. The “MICB /MICA” value (Staphylococcus Aureus; Lacking penicillinase, 3 strains) was 1.0, the “MICB /MICA” value (Staphylococcus Aureus; Penicillinase producer, 26 strains) was 2.2 and the MIC (Bacteroides Fragilis) was 125 µg/mL (≈ 315 µM). It also gave an MIC (Listeria monocytogenes) of 2 µg/mL (≈ 5.04 µM), an MIC (Escherichia coli; read-out: Minimum Inhibitory Concentration, Escherichia coli strain 1, A, Inoculum of 10^2 organisms) of 8 µg/mL (≈ 20.2 µM) and an MIC (Escherichia coli; read-out: Minimum Inhibitory Concentration, Escherichia coli strain 1, B, Inoculum of 10^6 organisms) of 32 µg/mL (≈ 80.7 µM). The MIC (Escherichia coli; read-out: Minimum Inhibitory Concentration, Escherichia coli strain 2, A, Inoculum of 10^2 organisms) was 16 µg/mL (≈ 40.4 µM), the MIC (Escherichia coli; read-out: Minimum Inhibitory Concentration, Escherichia coli strain 2, B, Inoculum of 10^6 organisms) was 32 µg/mL (≈ 80.7 µM) and the MIC (Escherichia coli; read-out: Minimum Inhibitory Concentration, Escherichia coli strain 3, A, Inoculum of 10^2 organisms) was 4 µg/mL (≈ 10.1 µM). For the same molecule, the MIC (Escherichia coli; read-out: Minimum Inhibitory Concentration, Escherichia coli strain 3, B, Inoculum of 10^6 organisms) was 16 µg/mL (≈ 40.4 µM), the MIC (Escherichia coli; read-out: Minimum Inhibitory Concentration, Escherichia coli strain 4, A, Inoculum of 10^2 organisms) was 4 µg/mL (≈ 10.1 µM) and the MIC (Escherichia coli; read-out: Minimum Inhibitory Concentration, Escherichia coli strain 4, B, Inoculum of 10^6 organisms) was 32 µg/mL (≈ 80.7 µM). The MIC (Escherichia coli; read-out: Minimum Inhibitory Concentration, Escherichia coli strain 5, A, Inoculum of 10^2 organisms) was 4 µg/mL (≈ 10.1 µM), the MIC (Escherichia coli; read-out: Minimum Inhibitory Concentration, Escherichia coli strain 5, B, Inoculum of 10^6 organisms) was 32 µg/mL (≈ 80.7 µM) and the MIC (Escherichia coli; read-out: Minimum Inhibitory Concentration, Escherichia coli strain 6, A, Inoculum of 10^2 organisms) was 8 µg/mL (≈ 20.2 µM). The MIC (Escherichia coli; read-out: Minimum Inhibitory Concentration, Escherichia coli strain 6, B, Inoculum of 10^6 organisms) was 16 µg/mL (≈ 40.4 µM), the MIC (Escherichia coli; read-out: Minimum Inhibitory Concentration, Escherichia coli strain 7, A, Inoculum of 10^2 organisms) was 1 µg/mL (≈ 2.52 µM) and the MIC (Escherichia coli; read-out: Minimum Inhibitory Concentration, Escherichia coli strain 7, B, Inoculum of 10^6 organisms) was 8 µg/mL (≈ 20.2 µM). For the same molecule, the “susceptibility of Neisseria gonorrhoeae” value (Neisseria gonorrhoeae) was “equally susceptible”, the MIC (Edwardsiella tarda) was 1 µg/mL (≈ 2.52 µM) and the MIC (Erwinia sp.) was 5.3 µg/mL (≈ 13.4 µM). The MIC (Klebsiella pneumoniae; read-out: Minimum Inhibitory Concentration, Klebsiella pneumoniae strain 1, A, Inoculum of 10^2 organisms) was 2 µg/mL (≈ 5.04 µM), the MIC (Klebsiella pneumoniae; read-out: Minimum Inhibitory Concentration, Klebsiella pneumoniae strain 1, B, Inoculum of 10^6 organisms) was 8 µg/mL (≈ 20.2 µM) and the MIC (Klebsiella pneumoniae; read-out: Minimum Inhibitory Concentration, Klebsiella pneumoniae strain 2, A, Inoculum of 10^2 organisms) was 2 µg/mL (≈ 5.04 µM). For the same molecule, the MIC (Klebsiella pneumoniae; read-out: Minimum Inhibitory Concentration, Klebsiella pneumoniae strain 2, B, Inoculum of 10^6 organisms) was 32 µg/mL (≈ 80.7 µM), the MIC (Klebsiella pneumoniae; read-out: Minimum Inhibitory Concentration, Klebsiella pneumoniae strain 3, A, Inoculum of 10^2 organisms) was 2 µg/mL (≈ 5.04 µM) and the MIC (Klebsiella pneumoniae; read-out: Minimum Inhibitory Concentration, Klebsiella pneumoniae strain 3, B, Inoculum of 10^6 organisms) was 16 µg/mL (≈ 40.4 µM). The MIC (Klebsiella pneumoniae; read-out: Minimum Inhibitory Concentration, Klebsiella pneumoniae strain 4, A, Inoculum of 10^2 organisms) was 2 µg/mL (≈ 5.04 µM), the MIC (Klebsiella pneumoniae; read-out: Minimum Inhibitory Concentration, Klebsiella pneumoniae strain 4, B, Inoculum of 10^6 organisms) was 8 µg/mL (≈ 20.2 µM) and the MIC (Klebsiella pneumoniae; read-out: Minimum Inhibitory Concentration, Klebsiella pneumoniae strain 5, A, Inoculum of 10^2 organisms) was 2 µg/mL (≈ 5.04 µM). It also gave an MIC (Klebsiella pneumoniae; read-out: Minimum Inhibitory Concentration, Klebsiella pneumoniae strain 5, B, Inoculum of 10^6 organisms) of 32 µg/mL (≈ 80.7 µM), an MIC (Klebsiella pneumoniae; read-out: Minimum Inhibitory Concentration, Klebsiella pneumoniae strain 6, A, Inoculum of 10^2 organisms) of 1 µg/mL (≈ 2.52 µM) and an MIC (Klebsiella pneumoniae; read-out: Minimum Inhibitory Concentration, Klebsiella pneumoniae strain 6, B, Inoculum of 10^6 organisms) of 16 µg/mL (≈ 40.4 µM). It also gave an MIC (Citrobacter sp.; read-out: Minimum inhibitory concentration, Citrobacter sp., 1 strain) greater than 125 µg/mL, an MIC (Citrobacter sp.; read-out: Minimum inhibitory concentration, Citrobacter sp., 4 strains, geometric mean when applicable) of 63 µg/mL (≈ 159 µM) and an MIC (Proteus rettgeri; read-out: Minimum Inhibitory Concentration, Proteus rettgeri strain 1, A, Inoculum of 10^2 organisms) of 0.25 µg/mL (≈ 0.631 µM). For the same molecule, the MIC (Proteus rettgeri; read-out: Minimum Inhibitory Concentration, Proteus rettgeri strain 1, B, Inoculum of 10^6 organisms) was 250 µg/mL (≈ 631 µM), the MIC (Proteus rettgeri; read-out: Minimum Inhibitory Concentration, Proteus rettgeri strain 2, A, Inoculum of 10^2 organisms) was 0.25 µg/mL (≈ 0.631 µM) and the MIC (Proteus rettgeri; read-out: Minimum Inhibitory Concentration, Proteus rettgeri strain 2, B, Inoculum of 10^6 organisms) was greater than 250 µg/mL. It also gave an MIC (Proteus rettgeri; read-out: Minimum Inhibitory Concentration, Proteus rettgeri strain 3, A, Inoculum of 10^2 organisms) of 32 µg/mL (≈ 80.7 µM) and an MIC (Proteus rettgeri; read-out: Minimum Inhibitory Concentration, Proteus rettgeri strain 3, B, Inoculum of 10^6 organisms) greater than 250 µg/mL.
